Measurements published in article PMC8805605, “Discovery of Dimeric Arylsulfonamides as Potent ADAM8 Inhibitors” (ACS Medicinal Chemistry Letters, 2021).

Molecular target: T1, ADAM10 (Homo sapiens, UniProt O14672)
T1 construct: purchased R&D Systems
T1 sequence (O14672 214-748): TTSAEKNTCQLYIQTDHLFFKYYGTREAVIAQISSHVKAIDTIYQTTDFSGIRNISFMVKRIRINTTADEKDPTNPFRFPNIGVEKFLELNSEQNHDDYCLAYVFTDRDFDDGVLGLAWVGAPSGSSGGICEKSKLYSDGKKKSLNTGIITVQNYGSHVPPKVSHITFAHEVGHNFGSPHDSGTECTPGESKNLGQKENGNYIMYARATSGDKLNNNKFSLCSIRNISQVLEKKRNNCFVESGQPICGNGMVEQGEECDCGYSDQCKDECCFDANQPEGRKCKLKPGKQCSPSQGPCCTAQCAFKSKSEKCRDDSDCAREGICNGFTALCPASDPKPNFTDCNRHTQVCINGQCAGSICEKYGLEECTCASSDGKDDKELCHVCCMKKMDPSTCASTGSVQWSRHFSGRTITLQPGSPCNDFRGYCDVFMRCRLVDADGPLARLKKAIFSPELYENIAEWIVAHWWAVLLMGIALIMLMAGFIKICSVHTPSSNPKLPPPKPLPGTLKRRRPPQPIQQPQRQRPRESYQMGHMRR
Assay: ADAM10 fluorometric inhibition assay
Assay type: biochemical
Conditions: mean of three independent experiments in duplicate, read-out: In vitro inhibitory activity IC50 on ADAM10
Method: The newly synthesized bivalent derivatives 1–3 were then tested in vitro on human recombinant ADAM8 in comparison with JG26 by a fluorometric assay. The inhibitory activity against a panel of MMPs and ADAM10/17 was determined as well to assess their selectivity profile. […]
VI. Biological Activity on Isolated Enzymes
MMP and ADAM10 inhibition assays.
Recombinant human MMP-14 catalytic domain was a kind gift of Prof. Gillian Murphy (Department of […]
Oncology, University of Cambridge, UK). Pro-MMP-1, pro-MMP-2, and pro-MMP-9, were purchased […]
from Calbiochem (Merck-Millipore). Pro-MMP-12 and ADAM10 were purchased from R&D Systems.
Proenzymes were activated immediately prior to use with p-aminophenylmercuric acetate (APMA 2 […]
mM for 1 h at 37°C for MMP-2 and MMP-1, 1 mM for 1 h at 37°C for MMP-9). Pro-MMP-12 was […]
auto activated by incubating in the fluorometric assay buffer (FAB: Tris 50 mM, pH = 7.5, NaCl 150 […]
mM, CaCl2 10 mM, Brij 35 0.05% and DMSO 1%) for 30 h at 37°C. For assay measurements, each […]
inhibitor stock solution (DMSO, 10 mM) was further diluted in FAB at seven different concentrations.
Activated enzyme (final concentration 0.56 nM for MMP-2, 1.3 nM for MMP-9, 1.0 nM for MMP- […]
14cd, 2.0 nM for MMP-1, 2.3 nM for MMP-12 and 20 nM for ADAM10) and inhibitor solutions were […]
incubated in the assay buffer for 3 h at 25 °C. ADAM10 was incubated for 1 h at 37°C in a different […]
buffer at pH 9 (Tris 25 mM, ZnCl2 25 µM, Brij-35 0.005 %). After the addition of 200 µM solution of […]
the fluorogenic substrate Mca-Lys-Pro-Leu-Gly-Leu-Dap(Dnp)-Ala-Arg-NH2 (Bachem) for all the […]
enzymes in DMSO (final concentration 2 µM for all enzymes, 10 µM for ADAM10), the hydrolysis […]
was monitored every 10 sec. for 15 min. recording the increase in fluorescence (λ ex = 325 nm, λ em = […]
400 nm) using a Molecular Devices SpectraMax Gemini XPS plate reader. The assays were performed […]
in triplicate in a total volume of 200 μL per well in 96-well microtitre plates (Corning, black, NBS).
Control wells lack inhibitor. The MMP inhibition activity was expressed in relative fluorescent units […]
(RFU). Percent of inhibition was calculated from control reactions without the inhibitor. IC50 was determined using the formula: v i/v o = 1/(1 + [I]/ IC50), where v i is the initial velocity of substrate cleavage in the presence of the inhibitor at concentration [I] and v o is the initial velocity in the absence of the inhibitor. Results were analyzed using SoftMax Pro software (version 5.4.3, Molecular Devices, Sunnyvale, CA) and Prism Software version 5.0 (GraphPad Software, Inc., La Jolla, CA, USA).
ADAM8 and ADAM17 inhibition assays […]

O=C(CCCNC(=O)c1cccc(C(=O)NCCCC(=O)NCCC[C@@H](NS(=O)(=O)c2ccc(OCc3cc(Br)cc(Br)c3)cc2)C(=O)NO)c1)NCCC[C@@H](NS(=O)(=O)c1ccc(OCc2cc(Br)cc(Br)c2)cc1)C(=O)NO [Compound 1]
IC50: 30.6 µM

O=C(NCCC[C@@H](NS(=O)(=O)c1ccc(OCc2cc(Br)cc(Br)c2)cc1)C(=O)NO)c1cccc(C(=O)NCCC[C@@H](NS(=O)(=O)c2ccc(OCc3cc(Br)cc(Br)c3)cc2)C(=O)NO)c1 [Compound 2]
IC50: 10 µM

O=C(NCCC[C@@H](NS(=O)(=O)c1ccc(OCc2cc(Br)cc(Br)c2)cc1)C(=O)NO)NCCC[C@@H](NS(=O)(=O)c1ccc(OCc2cc(Br)cc(Br)c2)cc1)C(=O)NO [Compound 3]
IC50: 27.4 µM

NC(=O)NCCC[C@@H](NS(=O)(=O)c1ccc(OCc2cc(Br)cc(Br)c2)cc1)C(=O)NO [JG26, reference compound]
IC50: 0.15 µM
